# From patent US20210322375A1, “COMBINATION DRUG FORMULATIONS FOR TREATING PATIENTS WITH CARDIOVASCULAR DISEASE AND ASSOCIATED CONDITIONS” (Esperion Therapeutics, Inc., priority 2018, published 2021)
# Entries after “also recorded” stand apart in the source; their conditions may differ. Marks after values point to notes of the source that are not given here.
# Tests used:
# [1] = system: high cardiovascular risk patients; experiment: Phase 3 clinical trial study: LDL-C and hsCRP lowering; type: in vivo, human; settings: ETC-1002 monotherapy
# [2] = system: high cardiovascular risk patients; experiment: Phase 3 clinical trial study: safety and tolerability; settings: human, in vivo
# From the text: In a phase 3 clinical trial study consisting of 382 high cardiovascular risk patients who are receiving maximally tolerated statin therapy, treatment of ETC-1002 in combination with Ezetimibe provided clinically and statistically significant lowering of both LDL-C and hsCRP levels by about 35% and about 34% respectively. For patients who are on maximally tolerated statins and received the combination therapy of ETC-1002 and Ezetimibe, no increases in muscle-related adverse effects and no elevations in liver function tests were observed as compared to patients receiving the placebo treatment.
# [3] = system: hypercholesterolemic patients; experiment: Phase 2b randomized double-blind trial: percent change from baseline to week 12 in lipids and CRP; type: in vivo, human; settings: for LDL-C reduction: baseline to week 12; for Apolipoprotein A-I, percent change from baseline to week 12 / Apolipoprotein B, percent change from baseline to week 12 / HDL particle number, percent change from baseline to week 12 / HDL-C, percent change from baseline to week 12 / LDL particle number, percent change from baseline to week 12 / LDL-C, percent change from baseline to week 12 / Non-HDL-C, percent change from baseline to week 12 / Total cholesterol, percent change from baseline to week 12: LS mean ± SE; for CRP, percent change from baseline to week 12 / Triglycerides, percent change from baseline to week 12 / VLDL particle number, percent change from baseline to week 12: median (interquartile range)
# Procedure: Brief Description of Clinical Study and Results.
# Study Objectives. The primary objective was to assess the LDL-C-lowering effect of ETC-1002 monotherapy (120 mg or 180 mg daily) versus EZE monotherapy in hypercholesterolemic patients with or without statin intolerance. Secondary objectives were to characterize the dose response of ETC-1002, evaluate the impact of treatment on other lipid and cardiometabolic biomarkers, compare the LDL-C-lowering effect of ETC-1002 plus EZE combination therapy with EZE monotherapy, and characterize the safety and tolerability of the treatment regimens, including muscle-related adverse events (AEs).
# Overall Study Design and Plan. […] 16, 2013 to Aug.
# LDL-C was calculated using the Friedewald equation.
# Efficacy Endpoints. The primary endpoint was the percent change from baseline to week 12 in calculated LDL-C in patients treated with ETC-1002 monotherapy versus those treated with EZE alone. Secondary endpoints included the dose-response relationship between ETC-1002 and the percent change in LDL-C from baseline to week 12, the percent change in LDL-C from baseline to week 12 in patients treated with ETC-1002 plus EZE versus those treated with EZE alone, and the percent change from baseline to week 12 for all treatment groups in LDL particle number, apolipoprotein B, total cholesterol, non-high-density lipoprotein cholesterol (non-HDL-C), HDL-C, HDL particle number, apolipoprotein A-I, triglycerides, very-low-density lipoprotein (VLDL) particle number, and high-sensitivity C-reactive protein (CRP). Lipoprotein particle number was measured using nuclear magnetic resonance […].
# Statistical Plan and Analyses. The study was designed to include 322 patients: 92 patients in each monotherapy group and 23 patients in each combination therapy group. Sample size calculations were performed using nQuery Advisor® version 7.0 (Statistical Solutions, Cork, Ireland). The sample size of 92 patients per monotherapy group was expected to provide 90% power to detect a difference of 10% in the absolute percent change from baseline to week 12 in LDL-C between either ETC-1002 treatment group and the EZE monotherapy group. This calculation was based on a 2-sided t test at the 5% level of significance and assumed a common standard deviation of 15% in the statin-tolerant patients and 22% in the statin-intolerant patients with a dropout rate of 15%.
# An analysis of covariance was used to compare each ETC-1002 treatment group with EZE monotherapy for each of the efficacy endpoints. The primary model included the effects of treatment and statin intolerance and the baseline value as a covariate. Baseline was defined as the mean of values from weeks −1 and 0 for LDL-C, non-HDL-C, total cholesterol, HDL-C, and triglycerides. For all other lipid and biomarker measures, baseline was defined as the last value before the first dose of study drug. Missing values at week 12 were imputed using the last-observation-carried-forward procedure. When LDL-C could not be calculated (i.e., triglycerides >400 mg/dL), beta-quantification measurements were used to determine LDL-C values. Least-squares (LS) means and standard errors were obtained for each treatment group; differences in LS means and p-values were obtained for the treatment comparisons. Graphical methods (e.g., normal probability plot and histogram of residuals, plot of residuals vs. predicted values) or analytical methods (e.g., Shapiro-Wilk test), or both, were used to assess the model assumptions. Because of departures from normality observed in the parameters of triglycerides, CRP, and VLDL particle number, nonparametric analyses were performed for these measures, with p-values obtained from the Wilcoxon rank-sum test and median values presented.
# Percent changes from baseline in LDL-C also were summarized by statin-tolerance subgroup. […]
# [4] = system: hypercholesterolemic patients; experiment: Phase 2b trial: treatment-emergent adverse events and laboratory safety
# From the text: Study Population. Medically stable, hypercholesterolemic men and women aged 18 through 80 years with a body mass index between 18 to 45 kg/m^2 were included in the study. […] The study population included both statin-tolerant and statin-intolerant participants. Statin intolerance was defined as the inability to tolerate ≥2 statins because of muscle-related symptoms such as pain, weakness, or cramping that began or increased during statin therapy and resolved on statin discontinuation. At least 1 statin must have been administered at the lowest approved daily dose, defined as rosuvastatin 5 mg, atorvastatin 10 mg, simvastatin 10 mg, lovastatin 20 mg, pravastatin 40 mg, fluvastatin 40 mg, or pitavastatin 2 mg. Treatment with less than the lowest approved daily dose of a statin (i.e., skipping days) was considered equivalent to not tolerating 1 statin at the lowest approved daily dose.
# Overall Study Design and Plan. […] Patients underwent a 5-week washout of all lipid-regulating drugs and dietary supplements and abstained from these drugs and supplements throughout the study. Patients also underwent a 5-week patient-only-blinded placebo run-in during the screening period (week −5 to week 0). This single-blind placebo run-in period was used to eliminate patients with muscle-related AEs during placebo treatment. Patients reporting new or worsening, unexplained muscle-related AEs during this run-in period were excluded from the study.
# Patients were stratified (1:1) by history of statin intolerance and randomized at week 0 in a 4:4:4:1:1 ratio to once-daily treatment with capsules containing ETC-1002 120 mg, ETC-1002 180 mg, EZE, ETC-1002 120 mg plus EZE, or ETC-1002 180 mg plus EZE. […] A contract laboratory (Medpace Inc., Cincinnati, Ohio), performed all clinical laboratory tests. LDL-C was calculated using the Friedewald equation. Phlebotomy was performed after a minimum 12-hour fast (water was allowed) and only if the patient took their dose of study drug the previous day.
# Safety Endpoints. The safety of ETC-1002 was assessed using treatment-emergent AEs; hematology, serum chemistry, and urinalysis laboratory values; physical examination findings; vital sign measurements; electrocardiogram (ECG) readings; weight; and ankle and waist circumference measurements. AEs were coded using the Medical Dictionary for Regulatory Activities version 16.0 and evaluated by the investigator for severity and relation to study drug. Muscle-related AEs were defined as those from the system organ class of musculoskeletal and connective tissue disorders, except for those that were not obviously muscle related. Terms included in the muscle-related AE analysis were selected from this system organ class after database lock and before unblinding.
# Safety analyses were performed on the safety population, which included randomized patients who received at least 1 dose of study drug. Baseline patient characteristics were summarized for the safety population by treatment group and statin-tolerance subgroup.
# Muscle-related AEs also were summarized by statin-tolerance subgroup.
# [5] = ETC-1002 120 mg daily, mITT n = 97
# [6] = ETC-1002 180 mg daily, mITT n = 99
# [7] = ETC-1002 120 mg daily, safety population n = 99
# [8] = ETC-1002 180 mg daily, safety population n = 100
# [9] = statin-intolerant patients, ETC-1002 120 mg, n = 51
# [10] = statin-intolerant patients, ETC-1002 180 mg, n = 51
# [11] = statin-tolerant patients, ETC-1002 120 mg, n = 48
# [12] = statin-tolerant patients, ETC-1002 180 mg, n = 49
smiles,measurement,setting,value
"CC(C)(CCCCCC(O)CCCCCC(C)(C)C(=O)O)C(=O)O [ETC-1002, 8-hydroxy-2,2,14,14 tetramethylpentadecanedioic acid]",LDL-C lowering,[1]; patients not receiving background statin therapy,≥ 30%
same,LDL-C lowering,[1]; patients receiving background statin therapy,≥ 20%
same,hsCRP lowering,[1]; patients receiving maximally tolerated statin therapy,22-40%
same,Increases in muscle-related adverse effects or serious adverse effects,[2],without any increases
same,Tolerability,[2],well tolerated and safe
same,"CRP decrease from baseline to week 12 endpoint, median",[3]; ETC-1002 120 mg,30%
same,LDL-C reduction,[3]; ETC-1002 120 mg alone,27%
same,"Apolipoprotein A-I, percent change from baseline to week 12",[3]; [5],−0.2 ± 1.1%
same,"Apolipoprotein B, percent change from baseline to week 12",[3]; [5],−19.3 ± 1.3 %
same,"HDL particle number, percent change from baseline to week 12",[3]; [5],5.0 ± 1.3%
same,"HDL-C, percent change from baseline to week 12",[3]; [5],−5.8 ± 1.4 %
same,"LDL particle number, percent change from baseline to week 12",[3]; [5],−21.8 ± 1.7 %
same,"LDL-C, percent change from baseline to week 12",[3]; [5],−27.5 ± 1.3 %
same,"Non-HDL-C, percent change from baseline to week 12",[3]; [5],−23.2 ± 1.2 %
same,"Total cholesterol, percent change from baseline to week 12",[3]; [5],−19.3 ± 0.9 %
same,"CRP, percent change from baseline to week 12",[3]; [5],−30.1 (55.4)† %
same,"Triglycerides, percent change from baseline to week 12",[3]; [5],0.0 (41.6) %
same,"VLDL particle number, percent change from baseline to week 12",[3]; [5],−2.7 (68.5) %
same,"CRP decrease from baseline to week 12 endpoint, median",[3]; ETC-1002 180 mg,40%
same,LDL-C reduction,[3]; ETC-1002 180 mg alone,30%
same,"Apolipoprotein A-I, percent change from baseline to week 12",[3]; [6],0.1 ± 1.2%
same,"Apolipoprotein B, percent change from baseline to week 12",[3]; [6],−21.3 ± 1.3 %
same,"HDL particle number, percent change from baseline to week 12",[3]; [6],6.2 ± 1.4%
same,"HDL-C, percent change from baseline to week 12",[3]; [6],−4.8 ± 1.4 %
same,"LDL particle number, percent change from baseline to week 12",[3]; [6],−24.6 ± 1.8 %
same,"LDL-C, percent change from baseline to week 12",[3]; [6],−30.1 ± 1.3 %
same,"Non-HDL-C, percent change from baseline to week 12",[3]; [6],−25.3 ± 1.1 %
same,"Total cholesterol, percent change from baseline to week 12",[3]; [6],−20.7 ± 0.9 %
same,"CRP, percent change from baseline to week 12",[3]; [6],−40.2 (53.3)† %
same,"Triglycerides, percent change from baseline to week 12",[3]; [6],−2.7 (46.2) %
same,"VLDL particle number, percent change from baseline to week 12",[3]; [6],15.3 (80.5) %
same,"LDL-C reduction, ETC-1002 alone (maximum)",[3]; ETC-1002 monotherapy 120 mg or 180 mg,up to 30%
same,"ALT or AST, or both, increased >3 times the upper limit of normal at any measurement",[4]; ETC-1002 120 mg,1 patient
same,"Myalgia, patients, entire study population",[4]; ETC-1002 120 mg,3%
same,Serious AE reported (event),[4]; ETC-1002 120 mg,hemothorax; also recorded: sudden death
same,"ALT increased, patients",[4]; [7],0 n (%)
same,"AST increased, patients",[4]; [7],0 n (%)
same,"Any AE(s), patients",[4]; [7],50 (51%) n (%)
same,"Arthralgia, patients",[4]; [7],4 (4%) n (%)
same,"Back pain, patients",[4]; [7],1 (1%) n (%)
same,"Blood CK increased, patients",[4]; [7],1 (1%) n (%)
same,"Constipation, patients",[4]; [7],3 (3%) n (%)
same,"Discontinuation due to AE(s), patients",[4]; [7],3 (3%) n (%)
same,"Headache, patients",[4]; [7],3 (3%) n (%)
same,"Myalgia, patients",[4]; [7],3 (3%) n (%)
same,"Nasopharyngitis, patients",[4]; [7],3 (3%) n (%)
same,"Serious AE(s), patients",[4]; [7],2 (2%) n (%)
same,"Study drug-related AE(s), patients",[4]; [7],13(13%) n (%)
same,"Upper respiratory tract infection, patients",[4]; [7],6 (6%) n (%)
same,"Urinary tract infection, patients",[4]; [7],0 n (%)
same,"ALT or AST, or both, increased >3 times the upper limit of normal at any measurement",[4]; ETC-1002 180 mg,2 patients
same,"Myalgia, patients, entire study population",[4]; ETC-1002 180 mg,1%
same,Serious AE reported (event),[4]; ETC-1002 180 mg,pancreatitis relapse
same,"ALT increased, patients",[4]; [8],0 n (%)
same,"AST increased, patients",[4]; [8],0 n (%)
same,"Any AE(s), patients",[4]; [8],55 (55%) n (%)
same,"Arthralgia, patients",[4]; [8],1 (1%) n (%)
same,"Back pain, patients",[4]; [8],1 (1%) n (%)
same,"Blood CK increased, patients",[4]; [8],4 (4%) n (%)
same,"Constipation, patients",[4]; [8],1 (1%) n (%)
same,"Discontinuation due to AE(s), patients",[4]; [8],6 (6%) n (%)
same,"Headache, patients",[4]; [8],2 (2%) n (%)
same,"Myalgia, patients",[4]; [8],1 (1%) n (%)
same,"Nasopharyngitis, patients",[4]; [8],5 (5%) n (%)
same,"Serious AE(s), patients",[4]; [8],1 (1%) n (%)
same,"Study drug-related AE(s), patients",[4]; [8],18 (18%) n (%)
same,"Upper respiratory tract infection, patients",[4]; [8],6 (6%) n (%)
same,"Urinary tract infection, patients",[4]; [8],4 (4%) n (%)
same,"Any muscle-related AE, patients",[4]; [9],7 (14%) n (%)
same,"Muscle spasms, patients",[4]; [9],3 (6%) n (%)
same,"Muscle-related AE leading to discontinuation, patients",[4]; [9],1 (2%) n (%)
same,"Muscular weakness, patients",[4]; [9],2 (4%) n (%)
same,"Musculoskeletal chest pain, patients",[4]; [9],0 n (%)
same,"Musculoskeletal stiffness, patients",[4]; [9],0 n (%)
same,"Myalgia, patients",[4]; [9],2 (4%) n (%)
same,"Pain in extremity, patients",[4]; [9],1 (2%) n (%)
same,"Sensation of heaviness, patients",[4]; [9],0 n (%)
same,"Any muscle-related AE, patients",[4]; [10],6 (12%) n (%)
same,"Muscle spasms, patients",[4]; [10],2 (4%) n (%)
same,"Muscle-related AE leading to discontinuation, patients",[4]; [10],2 (4%) n (%)
same,"Muscular weakness, patients",[4]; [10],1 (2%) n (%)
same,"Musculoskeletal chest pain, patients",[4]; [10],1 (2%) n (%)
same,"Musculoskeletal stiffness, patients",[4]; [10],0 n (%)
same,"Myalgia, patients",[4]; [10],1 (2%) n (%)
same,"Pain in extremity, patients",[4]; [10],1 (2%) n (%)
same,"Sensation of heaviness, patients",[4]; [10],0 n (%)
same,"Any muscle-related AE, patients",[4]; [11],1 (2%) n (%)
same,"Muscle spasms, patients",[4]; [11],0 n (%)
same,"Muscle-related AE leading to discontinuation, patients",[4]; [11],0 n (%)
same,"Musculoskeletal pain, patients",[4]; [11],0 n (%)
same,"Myalgia, patients",[4]; [11],1 (2%) n (%)
same,"Any muscle-related AE, patients",[4]; [12],0 n (%)
same,"Muscle spasms, patients",[4]; [12],0 n (%)
same,"Muscle-related AE leading to discontinuation, patients",[4]; [12],0 n (%)
same,"Musculoskeletal pain, patients",[4]; [12],0 n (%)
same,"Myalgia, patients",[4]; [12],0 n (%)
